Key:
Test in all cases: In-water applied herbicidal activity in transplanted paddy rice
Assay type in all cases: in vivo
[1] = system: ORYSA = Oryza sativa ‘M202’ (rice); conditions: for GR50 ORYSA ‘M202’: Table 7, dose to kill or control 50 percent; for GR50 ORYSA ‘M202’ / GR90 ORYSA ‘M202’: 21 days after application; for GR90 ORYSA ‘M202’: Table 7, dose to kill or control 90 percent
Procedure: (§1) Weed seeds or nutlets of the desired test plant species were planted in puddled soil (mud) prepared by mixing a non-sterilized mineral soil (28 percent silt, 18 percent clay, and 54 percent sand, with a pH of about 7.3 to 7.8 and an organic matter content of about 1.0 percent) and water at a ratio of 100 kilograms (kg) of soil to 19 liters (L) of water. The prepared mud was dispensed in 250 mL aliquots into 480 mL non-perforated plastic pots with a surface area of 86.59 cm^2 leaving a headspace of 2.5 to 3 cm in each pot. Rice seeds were planted in Sun Gro MetroMix 306 planting mixture, which typically has a pH of 6.0 to 6.8 and an organic matter content of about 30 percent, in plastic plug trays. Seedlings at the second or third leaf stage of growth were transplanted into 650 mL of mud contained in 960 mL non-perforated plastic pots with a surface area of 86.59 cm^2 four days prior to herbicide application. The paddy was created by filling the 2.5 to 3 cm headspace of the pots with water. When required to ensure good germination and healthy plants, a fungicide treatment and/or other chemical or physical treatment was applied. The plants were grown for 4-14 d in a greenhouse with an approximate 14-h photoperiod which was maintained at about 29° C. during the day and 26° C. during the night. Nutrients were added as Osmocote (17:6:10, Nitrogen:Phosphorus:Potassium (N:P:K)+minor nutrients) at 2 grams (g) per cup. Water was added on a regular basis to maintain the paddy flood, and supplemental lighting was provided with overhead metal halide 1000-Watt lamps as necessary. The plants were employed for testing when they reached the second or third true leaf stage. Treatments consisted of compounds 45, 34, and 66. For technical grade compounds, a weighed amount, determined by the highest rate to be tested, was placed in an individual 120 mL glass vial and was dissolved in 20 mL of acetone to obtain concentrated stock solutions. […] The concentrated stock solutions obtained were diluted with 20 mL of an aqueous mixture containing 2.5% Agri-dex crop oil concentrate (v/v). Applications were made by injecting an appropriate amount of the stock solution into the aqueous layer of the paddy. Control plants were treated in the same manner with the solvent blank. All treated plant material received the same concentration of acetone and crop oil concentrate. The treated plants and control plants were placed in a greenhouse as described above and water was added as needed to maintain a paddy flood. After approximately 3 weeks, the condition of the test plants, compared with that of the untreated plants, was determined visually and scored on a scale of 0 to 100 percent where 0 corresponds to no injury and 100 corresponds to complete kill. By applying the well-accepted probit analysis as described by J. Berkson in Journal of the […], 48, 565 (1953) and by D. Finney in “Probit Analysis” Cambridge University Press (1952) or by plotting the mean data and fitting a logarithmic curve to the portion of the data where there was a dose response using Microsoft Excel®, the above data can be used to calculate GR50 and GR90 values, which are defined as growth reduction factors that correspond to the effective dose of herbicide required to kill or control 50 percent or 90 percent, respectively, of a target plant.

[2] = system: CYPDI = Cyperus difformis L. (small-flower flatsedge); conditions: for GR50 CYPDI: Table 7, dose to kill or control 50 percent; for GR50 CYPDI / GR90 CYPDI: 21 days after application; for GR90 CYPDI: Table 7, dose to kill or control 90 percent
Procedure: as §1

[3] = system: ECHCG = Echinochloa crus-galli (L.) P.BEAUV. (barnyardgrass); conditions: for GR50 ECHCG: Table 7, dose to kill or control 50 percent; for GR50 ECHCG / GR90 ECHCG: 21 days after application; for GR90 ECHCG: Table 7, dose to kill or control 90 percent
Procedure: as §1

[4] = system: SCPJU = Scirpus juncoides ROXB. (Japanese bulrush); conditions: for GR50 SCPJU: Table 7, dose to kill or control 50 percent; for GR50 SCPJU / GR90 SCPJU: 21 days after application; for GR90 SCPJU: Table 7, dose to kill or control 90 percent
Procedure: as §1

[5] = system: ORYSA = Oryza sativa ‘Wells’ (rice); conditions: for GR50 ORYSA ‘Wells’: Table 7, dose to kill or control 50 percent; for GR50 ORYSA ‘Wells’ / GR90 ORYSA ‘Wells’: 21 days after application; for GR90 ORYSA ‘Wells’: Table 7, dose to kill or control 90 percent
Procedure: as §1

[6] = system: MOOVA = Monochoria vaginalis (BURM.f.) C.PRESL ex KUNTH (monochoria); conditions: for GR50 MOOVA: Table 7, dose to kill or control 50 percent; for GR50 MOOVA / GR90 MOOVA: 21 days after application; for GR90 MOOVA: Table 7, dose to kill or control 90 percent
Procedure: as §1

## COc1c(C(=O)O)nc(-c2ccc(Cl)c(OC)c2F)c(F)c1N [Compound 45, 4-amino-6-(4-chloro-2-fluoro-3-methoxyphenyl)-5-fluoro-3-methoxypicolinic acid]
[1]; Table 7, 8.75 g ae/ha
  Mean Visual Injury (%)-21 Days After Application ORYSA ‘M202’: 0%
[1]; Table 7, 17.5 g ae/ha
  Mean Visual Injury (%)-21 Days After Application ORYSA ‘M202’: 0%
[1]; Table 7, 35 g ae/ha
  Mean Visual Injury (%)-21 Days After Application ORYSA ‘M202’: 0%
[1]; Table 7, 70 g ae/ha
  Mean Visual Injury (%)-21 Days After Application ORYSA ‘M202’: 0%
[1]; Table 7, 140 g ae/ha
  Mean Visual Injury (%)-21 Days After Application ORYSA ‘M202’: 12%
[1]
  GR50 ORYSA ‘M202’: >140 g ae/ha
  GR90 ORYSA ‘M202’: >140 g ae/ha
[2]; Table 7, 8.75 g ae/ha
  Mean Visual Injury (%)-21 Days After Application CYPDI: 67%
[2]; Table 7, 17.5 g ae/ha
  Mean Visual Injury (%)-21 Days After Application CYPDI: 100%
[2]; Table 7, 35 g ae/ha
  Mean Visual Injury (%)-21 Days After Application CYPDI: 100%
[2]; Table 7, 70 g ae/ha
  Mean Visual Injury (%)-21 Days After Application CYPDI: 100%
[2]; Table 7, 140 g ae/ha
  Mean Visual Injury (%)-21 Days After Application CYPDI: 100%
[2]
  GR50 CYPDI: <8.75 g ae/ha
  GR90 CYPDI: 14.2 g ae/ha
[3]; Table 7, 8.75 g ae/ha
  Mean Visual Injury (%)-21 Days After Application ECHCG: 0%
[3]; Table 7, 17.5 g ae/ha
  Mean Visual Injury (%)-21 Days After Application ECHCG: 0%
[3]; Table 7, 35 g ae/ha
  Mean Visual Injury (%)-21 Days After Application ECHCG: 30%
[3]; Table 7, 70 g ae/ha
  Mean Visual Injury (%)-21 Days After Application ECHCG: 100%
[3]; Table 7, 140 g ae/ha
  Mean Visual Injury (%)-21 Days After Application ECHCG: 100%
[3]
  GR50 ECHCG: 38.4 g ae/ha
  GR90 ECHCG: 66.8 g ae/ha
[4]; Table 7, 8.75 g ae/ha
  Mean Visual Injury (%)-21 Days After Application SCPJU: 10%
[4]; Table 7, 17.5 g ae/ha
  Mean Visual Injury (%)-21 Days After Application SCPJU: 63%
[4]; Table 7, 35 g ae/ha
  Mean Visual Injury (%)-21 Days After Application SCPJU: 93%
[4]; Table 7, 70 g ae/ha
  Mean Visual Injury (%)-21 Days After Application SCPJU: 100%
[4]; Table 7, 140 g ae/ha
  Mean Visual Injury (%)-21 Days After Application SCPJU: 100%
[4]
  GR50 SCPJU: 16.8 g ae/ha
  GR90 SCPJU: 42.4 g ae/ha
[5]; Table 7, 8.75 g ae/ha
  Mean Visual Injury (%)-21 Days After Application ORYSA ‘Wells’: 0%
[5]; Table 7, 17.5 g ae/ha
  Mean Visual Injury (%)-21 Days After Application ORYSA ‘Wells’: 0%
[5]; Table 7, 35 g ae/ha
  Mean Visual Injury (%)-21 Days After Application ORYSA ‘Wells’: 0%
[5]; Table 7, 70 g ae/ha
  Mean Visual Injury (%)-21 Days After Application ORYSA ‘Wells’: 0%
[5]; Table 7, 140 g ae/ha
  Mean Visual Injury (%)-21 Days After Application ORYSA ‘Wells’: 7%
[5]
  GR50 ORYSA ‘Wells’: >140 g ae/ha
  GR90 ORYSA ‘Wells’: >140 g ae/ha
[6]; Table 7, 8.75 g ae/ha
  Mean Visual Injury (%)-21 Days After Application MOOVA: 100%
[6]; Table 7, 17.5 g ae/ha
  Mean Visual Injury (%)-21 Days After Application MOOVA: 100%
[6]; Table 7, 35 g ae/ha
  Mean Visual Injury (%)-21 Days After Application MOOVA: 100%
[6]; Table 7, 70 g ae/ha
  Mean Visual Injury (%)-21 Days After Application MOOVA: 100%
[6]; Table 7, 140 g ae/ha
  Mean Visual Injury (%)-21 Days After Application MOOVA: 100%
[6]
  GR50 MOOVA: <8.75 g ae/ha
  GR90 MOOVA: <8.75 g ae/ha

## COc1c(C(=O)OCc2ccccc2)nc(-c2ccc(Cl)c(OC)c2F)c(F)c1N [Compound 66, benzyl 4-amino-6-(4-chloro-2-fluoro-3-methoxyphenyl)-5-fluoro-3-methoxypicolinate]
[1]; Table 7, 2.19 g ae/ha
  Mean Visual Injury (%)-21 Days After Application ORYSA ‘M202’: 0%
[1]; Table 7, 4.38 g ae/ha
  Mean Visual Injury (%)-21 Days After Application ORYSA ‘M202’: 0%
[1]; Table 7, 8.75 g ae/ha
  Mean Visual Injury (%)-21 Days After Application ORYSA ‘M202’: 0%
[1]; Table 7, 17.5 g ae/ha
  Mean Visual Injury (%)-21 Days After Application ORYSA ‘M202’: 0%
[1]; Table 7, 35 g ae/ha
  Mean Visual Injury (%)-21 Days After Application ORYSA ‘M202’: 0%
[1]; Table 7, 70 g ae/ha
  Mean Visual Injury (%)-21 Days After Application ORYSA ‘M202’: 0%
[1]; Table 7, 140 g ae/ha
  Mean Visual Injury (%)-21 Days After Application ORYSA ‘M202’: 17%
[1]
  GR50 ORYSA ‘M202’: >140 g ae/ha
  GR90 ORYSA ‘M202’: >140 g ae/ha
[2]; Table 7, 2.19 g ae/ha
  Mean Visual Injury (%)-21 Days After Application CYPDI: 0%
[2]; Table 7, 4.38 g ae/ha
  Mean Visual Injury (%)-21 Days After Application CYPDI: 48%
[2]; Table 7, 8.75 g ae/ha
  Mean Visual Injury (%)-21 Days After Application CYPDI: 94%
[2]; Table 7, 17.5 g ae/ha
  Mean Visual Injury (%)-21 Days After Application CYPDI: 100%
[2]; Table 7, 35 g ae/ha
  Mean Visual Injury (%)-21 Days After Application CYPDI: 100%
[2]; Table 7, 70 g ae/ha
  Mean Visual Injury (%)-21 Days After Application CYPDI: 100%
[2]; Table 7, 140 g ae/ha
  Mean Visual Injury (%)-21 Days After Application CYPDI: 100%
[2]
  GR50 CYPDI: 4.5 g ae/ha
  GR90 CYPDI: 8.2 g ae/ha
[3]; Table 7, 2.19 g ae/ha
  Mean Visual Injury (%)-21 Days After Application ECHCG: 0%
[3]; Table 7, 4.38 g ae/ha
  Mean Visual Injury (%)-21 Days After Application ECHCG: 3%
[3]; Table 7, 8.75 g ae/ha
  Mean Visual Injury (%)-21 Days After Application ECHCG: 6%
[3]; Table 7, 17.5 g ae/ha
  Mean Visual Injury (%)-21 Days After Application ECHCG: 57%
[3]; Table 7, 35 g ae/ha
  Mean Visual Injury (%)-21 Days After Application ECHCG: 86%
[3]; Table 7, 70 g ae/ha
  Mean Visual Injury (%)-21 Days After Application ECHCG: 99%
[3]; Table 7, 140 g ae/ha
  Mean Visual Injury (%)-21 Days After Application ECHCG: 100%
[3]
  GR50 ECHCG: 17.4 g ae/ha
  GR90 ECHCG: 53.7 g ae/ha
[4]; Table 7, 2.19 g ae/ha
  Mean Visual Injury (%)-21 Days After Application SCPJU: 35%
[4]; Table 7, 4.38 g ae/ha
  Mean Visual Injury (%)-21 Days After Application SCPJU: 78%
[4]; Table 7, 8.75 g ae/ha
  Mean Visual Injury (%)-21 Days After Application SCPJU: 94%
[4]; Table 7, 17.5 g ae/ha
  Mean Visual Injury (%)-21 Days After Application SCPJU: 98%
[4]; Table 7, 35 g ae/ha
  Mean Visual Injury (%)-21 Days After Application SCPJU: 100%
[4]; Table 7, 70 g ae/ha
  Mean Visual Injury (%)-21 Days After Application SCPJU: 100%
[4]; Table 7, 140 g ae/ha
  Mean Visual Injury (%)-21 Days After Application SCPJU: 100%
[4]
  GR50 SCPJU: 2.8 g ae/ha
  GR90 SCPJU: 7.1 g ae/ha
[5]; Table 7, 8.75 g ae/ha
  Mean Visual Injury (%)-21 Days After Application ORYSA ‘Wells’: 0%
[5]; Table 7, 17.5 g ae/ha
  Mean Visual Injury (%)-21 Days After Application ORYSA ‘Wells’: 0%
[5]; Table 7, 35 g ae/ha
  Mean Visual Injury (%)-21 Days After Application ORYSA ‘Wells’: 0%
[5]; Table 7, 70 g ae/ha
  Mean Visual Injury (%)-21 Days After Application ORYSA ‘Wells’: 0%
[5]; Table 7, 140 g ae/ha
  Mean Visual Injury (%)-21 Days After Application ORYSA ‘Wells’: 5%
[5]
  GR50 ORYSA ‘Wells’: >140 g ae/ha
  GR90 ORYSA ‘Wells’: >140 g ae/ha
[6]; Table 7, 2.19 g ae/ha
  Mean Visual Injury (%)-21 Days After Application MOOVA: 0%
[6]; Table 7, 4.38 g ae/ha
  Mean Visual Injury (%)-21 Days After Application MOOVA: 100%
[6]; Table 7, 8.75 g ae/ha
  Mean Visual Injury (%)-21 Days After Application MOOVA: 100%
[6]; Table 7, 17.5 g ae/ha
  Mean Visual Injury (%)-21 Days After Application MOOVA: 100%
[6]; Table 7, 35 g ae/ha
  Mean Visual Injury (%)-21 Days After Application MOOVA: 100%
[6]; Table 7, 70 g ae/ha
  Mean Visual Injury (%)-21 Days After Application MOOVA: 100%
[6]; Table 7, 140 g ae/ha
  Mean Visual Injury (%)-21 Days After Application MOOVA: 100%
[6]
  GR50 MOOVA: <4.38 g ae/ha
  GR90 MOOVA: <4.38 g ae/ha
